# Results reported in patent publication US20250263390A1, “NOVEL SUBSTITUTED 6,7-DIHYDRO-5H-BENZO[7]ANNULENE COMPOUNDS AND THEIR DERIVATIVES, PROCESSES FOR THEIR PREPARATION AND THERAPEUTIC USES THEREOF” (SANOFI, priority 2022, published 2025).
# Target: T1, ERα (Homo sapiens, UniProt P03372)
# T1 construct: host or cells: MCF7
# T1 sequence (P03372 1-595): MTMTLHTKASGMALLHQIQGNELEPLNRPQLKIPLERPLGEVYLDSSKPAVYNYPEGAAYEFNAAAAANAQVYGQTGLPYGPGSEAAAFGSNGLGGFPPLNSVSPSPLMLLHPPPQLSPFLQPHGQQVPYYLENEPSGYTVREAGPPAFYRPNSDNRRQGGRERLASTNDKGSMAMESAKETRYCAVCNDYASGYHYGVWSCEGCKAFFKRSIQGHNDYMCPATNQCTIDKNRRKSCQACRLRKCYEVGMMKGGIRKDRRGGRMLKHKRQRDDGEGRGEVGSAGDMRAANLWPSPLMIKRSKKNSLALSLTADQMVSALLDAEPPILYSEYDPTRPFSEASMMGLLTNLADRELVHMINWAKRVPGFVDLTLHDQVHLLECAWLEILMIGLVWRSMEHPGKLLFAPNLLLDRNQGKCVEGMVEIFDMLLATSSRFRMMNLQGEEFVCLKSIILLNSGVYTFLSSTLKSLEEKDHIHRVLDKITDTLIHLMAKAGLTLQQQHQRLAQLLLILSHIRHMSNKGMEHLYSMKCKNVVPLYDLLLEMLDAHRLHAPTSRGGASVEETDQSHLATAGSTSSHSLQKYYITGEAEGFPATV
# Test: Estrogen receptor degradation activity: breast cancer cell ERα in cell western assay
# Assay type: cell-based
# Settings: MCF7 cells, 4 hours, relative to fulvestrant 0.1 μM positive control
# Procedure: Test: Estrogen Receptor Degradation Activity Said test involves measuring the in vitro degradation activity of the compounds of the Table 1a. The measurements of the degradation activities were made using a breast cancer cell ERα in cell western assay as described hereunder. MCF7 cells (ATCC) were seeded in 384 wells microplate (collagen coated) at a concentration of 10000 cells/30 μL per well in red phenol free MEM alpha medium (invitrogen) containing 5% charcoal dextran striped FBS. The following day, 9 points serial 1:5 dilution of each compound was added to the cells in 2.5p L at final concentrations ranging from 0.3-0.0000018 μM (in table 2), or 0.1 μM for fulvestrant (using as positive control). At 4 hours post compound addition the cells were fixed by adding 25 μL of formalin (final concentration 5% formalin containing 0.1% triton) for 10 minutes at room temperature and then washed twice with PBS. Then, 50 μL of LI-COR blocking buffer containing 0.1% Triton was added to plate for 30 minutes at room temperature. LI-COR blocking buffer was removed and cells were incubated overnight at cold room with 50 μL anti-ER rabbit monoclonal antibody (Thermo scientific MA1-39540) diluted at 1:1000 in LI-COR blocking buffer containing 0.1% tween-20. Wells which were treated with blocking buffer but no antibody were used as background control. Wells were washed twice with PBS (0.1% tween-20) and incubated at 37° C. for 60 minutes in LI-COR (0.1% tween-20) containing goat anti-rabbit antibody Alexa 488 (1:1000) and Syto-64 a DNA dye (2 μM final concentration). Cells were then washed 3 times in PBS and scanned in ACUMEN explorer (TTP-Labtech). Integrated intensities in the green fluorescence and red fluorescence were measured to determine the levels of ERα and DNA respectively. The degradation activity with respect to estrogen receptors in this test is given by the concentration which degrades 50% of the estrogen receptor (or IC50) in nM. The % of ERα levels decrease were determined as follows: % inhibition=100*(1−(sample−fulvestrant: DMSO−fulvestrant)).
row,SMILES,% Degradation At 0.3 μM [%]
1,"O=C(O)c1ccc2c(c1)CCCC(c1cccc(F)c1OC(F)F)=C2c1ccc(CC2CN(CCCF)C2)cc1 [Compound 1, 8-(2-(difluoromethoxy)-3-fluorophenyl)-9-(4-((1-(3-fluoropropyl)azetidin-3-yl)methyl)phenyl)-6,7-dihydro-5H-benzo[7]annulene-3-carboxylic acid]",85
2,"O=C(O)c1ccc2c(c1)CCCC(c1cccc3c1CCCC3)=C2c1ccc(CC2CN(CCCF)C2)cc1 [Compound 2, 9-(4-((1-(3-fluoropropyl)azetidin-3-yl)methyl)phenyl)-8-(5,6,7,8-tetrahydronaphthalen-1-yl)-6,7-dihydro-5H-benzo[7]annulene-3-carboxylic acid]",86
3,"O=C(O)c1ccc2c(c1)CCCC(C1CCC(CO)C1)=C2c1ccc(CC2CN(CCCF)C2)cc1 (centres unmarked) [Compound 3, 9-(4-((1-(3-fluoropropyl)azetidin-3-yl)methyl)phenyl)-8-(3-(hydroxymethyl)cyclopentyl)-6,7-dihydro-5H-benzo[7]annulene-3-carboxylic acid]",77
4,"COc1c(C2=C(c3ccc(CC4CN(CCCF)C4)cc3)c3ccc(C(=O)O)cc3CCC2)cccc1C(F)(F)F [Compound 4, 9-(4-((1-(3-fluoropropyl)azetidin-3-yl)methyl)phenyl)-8-(2-methoxy-3-(trifluoromethyl)phenyl)-6,7-dihydro-5H-benzo[7]annulene-3-carboxylic acid]",83
5,"O=C(O)c1ccc2c(c1)CCCC(c1cccc(Cl)c1OC(F)(F)F)=C2c1ccc(CC2CN(CCCF)C2)cc1 [Compound 5, 8-(3-chloro-2-(trifluoromethoxy)phenyl)-9-(4-((1-(3-fluoropropyl)azetidin-3-yl)methyl)phenyl)-6,7-dihydro-5H-benzo[7]annulene-3-carboxylic acid]",87
6,"Cc1c(OC(F)(F)F)cccc1C1=C(c2ccc(CC3CN(CCCF)C3)cc2)c2ccc(C(=O)O)cc2CCC1 [Compound 6, 9-(4-((1-(3-fluoropropyl)azetidin-3-yl)methyl)phenyl)-8-(2-methyl-3-(trifluoromethoxy)phenyl)-6,7-dihydro-5H-benzo[7]annulene-3-carboxylic acid]",90
7,"COc1cccc(C2=C(c3ccc(CC4CN(CCCF)C4)cc3)c3ccc(C(=O)O)cc3CCC2)c1C [Compound 7, 9-(4-((1-(3-fluoropropyl)azetidin-3-yl)methyl)phenyl)-8-(3-methoxy-2-methylphenyl)-6,7-dihydro-5H-benzo[7]annulene-3-carboxylic acid]",93
8,"COc1cccc(C2=C(c3ccc(CC4CN(CCCF)C4)cc3)c3ccc(C(=O)O)cc3CCC2)c1C(F)F [Compound 8, 8-(2-(difluoromethyl)-3-methoxyphenyl)-9-(4-((1-(3-fluoropropyl)azetidin-3-yl)methyl)phenyl)-6,7-dihydro-5H-benzo[7]annulene-3-carboxylic acid]",89
9,"O=C(O)c1ccc2c(c1)CCCC(c1cccc3c1OCCC3)=C2c1ccc(CC2CN(CCCF)C2)cc1 [Compound 9, 8-(chroman-8-yl)-9-(4-((1-(3-fluoropropyl)azetidin-3-yl)methyl)phenyl)-6,7-dihydro-5H-benzo[7]annulene-3-carboxylic acid]",88
10,"CC1(C)CCC(C2=C(c3ncc(CC4CN(CCCF)C4)cc3F)c3ccc(C(=O)O)cc3CCC2)CC1 [Compound 10, 8-(4,4-dimethylcyclohexyl)-9-(3-fluoro-5-((1-(3-fluoropropyl)azetidin-3-yl)methyl)pyridin-2-yl)-6,7-dihydro-5H-benzo[7]annulene-3-carboxylic acid]",83
11,"COc1cccc(C2=C(c3ccc(CC4CN(CCCF)C4)cc3)c3ccc(C(=O)O)cc3CCC2)c1C(F)(F)F [Compound 11, 9-(4-((1-(3-fluoropropyl)azetidin-3-yl)methyl)phenyl)-8-(3-methoxy-2-(trifluoromethyl)phenyl)-6,7-dihydro-5H-benzo[7]annulene-3-carboxylic acid]",86
12,"O=C(O)c1ccc2c(c1)CCCC(c1cccc3c1CCCO3)=C2c1ccc(CC2CN(CCCF)C2)cc1 [Compound 12, 8-(chroman-5-yl)-9-(4-((1-(3-fluoropropyl)azetidin-3-yl)methyl)phenyl)-6,7-dihydro-5H-benzo[7]annulene-3-carboxylic acid]",86
13,"CC1(C)CCC(C2=C(c3ncc(CC4CN(CCC(F)F)C4)cc3F)c3ccc(C(=O)O)cc3CCC2)CC1 [Compound 13, 9-(5-((1-(3,3-difluoropropyl)azetidin-3-yl)methyl)-3-fluoropyridin-2-yl)-8-(4,4-dimethylcyclohexyl)-6,7-dihydro-5H-benzo[7]annulene-3-carboxylic acid]",64
14,"Cc1c(OC(F)F)cccc1C1=C(c2ccc(CC3CN(CCCF)C3)cc2)c2ccc(C(=O)O)cc2CCC1 [Compound 14, 8-(3-(difluoromethoxy)-2-methylphenyl)-9-(4-((1-(3-fluoropropyl)azetidin-3-yl)methyl)phenyl)-6,7-dihydro-5H-benzo[7]annulene-3-carboxylic acid]",93
15,"O=C(O)C(F)(F)F.O=C(O)c1ccc2c(c1)CCCC(CCCO)=C2c1ccc(CC2CN(CCCF)C2)cc1 [Compound 15, 9-(4-((1-(3-fluoropropyl)azetidin-3-yl)methyl)phenyl)-8-(3-hydroxypropyl)-6,7-dihydro-5H-benzo[7]annulene-3-carboxylic acid, 2,2,2-trifluoroacetic acid]",100
16,"COc1cc(C(F)(F)F)ccc1C1=C(c2ccc(CC3CN(CCCF)C3)cc2)c2ccc(C(=O)O)cc2CCC1.Cl [Compound 16, 9-(4-((1-(3-fluoropropyl)azetidin-3-yl)methyl)phenyl)-8-(2-methoxy-4-(trifluoromethyl)phenyl)-6,7-dihydro-5H-benzo[7]annulene-3-carboxylic acid, hydrochloride]",92
17,"COc1ccc(C2=C(c3ccc(CC4CN(CCCF)C4)cc3)c3ccc(C(=O)O)cc3CCC2)cc1C(F)(F)F.Cl [Compound 17, 9-(4-((1-(3-fluoropropyl)azetidin-3-yl)methyl)phenyl)-8-(4-methoxy-3-(trifluoromethyl)phenyl)-6,7-dihydro-5H-benzo[7]annulene-3-carboxylic acid, hydrochloride]",92
18,"Cc1ccc(C(F)(F)F)cc1C1=C(c2ccc(CC3CN(CCCF)C3)cc2)c2ccc(C(=O)O)cc2CCC1 [Compound 18, 9-(4-((1-(3-fluoropropyl)azetidin-3-yl)methyl)phenyl)-8-(2-methyl-5-(trifluoromethyl)phenyl)-6,7-dihydro-5H-benzo[7]annulene-3-carboxylic acid]",78
19,"COc1cc(C2=C(c3ccc(CC4CN(CCCF)C4)cc3)c3ccc(C(=O)O)cc3CCC2)ccc1C(F)(F)F.Cl [Compound 19, 9-(4-((1-(3-fluoropropyl)azetidin-3-yl)methyl)phenyl)-8-(3-methoxy-4-(trifluoromethyl)phenyl)-6,7-dihydro-5H-benzo[7]annulene-3-carboxylic acid, hydrochloride]",93
20,"Cc1ccc(C(F)(F)F)c(C2=C(c3ccc(CC4CN(CCCF)C4)cc3)c3ccc(C(=O)O)cc3CCC2)c1.Cl [Compound 20, 9-(4-((1-(3-fluoropropyl)azetidin-3-yl)methyl)phenyl)-8-(5-methyl-2-(trifluoromethyl)phenyl)-6,7-dihydro-5H-benzo[7]annulene-3-carboxylic acid, hydrochloride]",91
